TGI data for 13 molecules are collected here from PubChem BioAssay (NCI).

Molecules are shown by their SMILES.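 These data come from cells grown in 96-well plates and exposed to compound for 48 hours at five concentrations. Definition used: TGI = concentration required for complete inhibition of growth.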 A value given as a limit tells only on which side of the number the result lay.

Some test systems named below: K-562 leukemia; NCI/ADR-RES ovarian; HT29 colon; UO-31 renal; SK-OV-3 ovarian; HCT-15 colon; SF-539 CNS; MDA-MB-231 breast; COLO 205 colon; 786-0 renal; MOLT-4 leukemia; OVCAR-8 ovarian; SNB-75 CNS; KM12 colon; BT-549 breast; NCI-H460 lung; DU-145 prostate; T-47D breast; A549 NSCLC.
Common to all, as to experiment: growth of human tumour cells (NCI), 48 h

With `Cc1c(/C=N/NC(=S)Nc2ccc([N+](=O)[O-])cc2)c(=O)n(-c2ccccc2)n1C`, the TGI is > 100 µM in the test on K-562 leukemia; 32.1 µM in the test with NCI/ADR-RES ovarian; 25.5 µM with HT29 colon; 49.2 µM with UO-31 renal; 26.3 µM in the test with SK-OV-3 ovarian; 49.4 µM in the test on HCT-15 colon. For the same molecule, the TGI in the test with SF-539 CNS was 30 µM; in the test with MDA-MB-231 breast it was 49.2 µM; in the test on COLO 205 colon it was > 100 µM; with 786-0 renal, 27.3 µM; in the test with MOLT-4 leukemia, > 100 µM; in the test on OVCAR-8 ovarian, 31.6 µM. The figures for the TGI in the test on SNB-75 CNS, in the test with KM12 colon and with BT-549 breast were 26.3 µM, 51.1 µM and 36.5 µM, respectively.
On to `CCOC(=O)C(CC(C)C)NC(=O)C(N)Cc1ccc(N(CCCl)CCCl)cc1` (centres undefined), for which the TGI in the test with K-562 leukemia was 41.6 µM; in the test with HT29 colon, 11.6 µM; with NCI-H460 lung, 0.426 µM; in the test on UO-31 renal, 5.97 µM; with SK-OV-3 ovarian it was 16.6 µM; in the test with HCT-15 colon it was 11.5 µM. For the same molecule, the TGI is 9.59 µM in the test with SF-539 CNS; 47.1 µM with DU-145 prostate; 15.1 µM in the test with T-47D breast; 32.3 µM in the test on MDA-MB-231 breast; 12.1 µM in the test with COLO 205 colon; 6.81 µM in the test on 786-0 renal. Also, the TGI in the test with MOLT-4 leukemia is 1.68 µM; with OVCAR-8 ovarian, 24.9 µM; with SNB-75 CNS, 15.9 µM; in the test on A549 NSCLC it was 45.1 µM; with KM12 colon, 20.1 µM; with BT-549 breast, 46 µM.
As to `CC(Cc1ccc(O)cn1)(NC(=O)c1ccccc1)C(=O)O` (centres undefined), the TGI in the test with K-562 leukemia, in the test with NCI/ADR-RES ovarian, in the test with HT29 colon, in the test on NCI-H460 lung, in the test on UO-31 renal and in the test with SK-OV-3 ovarian was > 100 µM in each case. For the same molecule, the TGI in the test with HCT-15 colon, with SF-539 CNS, in the test with DU-145 prostate, with MDA-MB-231 breast, with COLO 205 colon and in the test on 786-0 renal was > 100 µM each time. Moreover, the TGI in the test with MOLT-4 leukemia, in the test on OVCAR-8 ovarian, in the test on SNB-75 CNS, with A549 NSCLC, in the test on KM12 colon and with BT-549 breast was > 100 µM each time.
For the molecule `CCCc1c(O)c2ccccc2[nH]c1=O`, the TGI in the test with K-562 leukemia, in the test on NCI/ADR-RES ovarian, in the test with HT29 colon, in the test on NCI-H460 lung, in the test with UO-31 renal and in the test on HCT-15 colon was > 100 µM throughout. Besides, the TGI in the test with SF-539 CNS, with DU-145 prostate, with MDA-MB-231 breast, in the test with COLO 205 colon, with 786-0 renal and in the test with MOLT-4 leukemia was > 100 µM in each case. The TGI in the test on OVCAR-8 ovarian, in the test on SNB-75 CNS, with A549 NSCLC, in the test with KM12 colon and in the test with BT-549 breast was > 100 µM in each case.
In the case of `C=CC[C@H](O)[C@@](NC(=O)OCc1ccccc1)(Sc1ccc(C)cc1)C(F)(F)F`, the TGI with K-562 leukemia is > 100 µM; in the test with NCI/ADR-RES ovarian, > 100 µM; in the test with HT29 colon, > 100 µM; in the test with NCI-H460 lung it was > 100 µM; in the test on UO-31 renal it was 55.4 µM; with HCT-15 colon, > 100 µM. Further, the TGI in the test with SF-539 CNS was 29.7 µM; with DU-145 prostate, > 100 µM; with MDA-MB-231 breast, 59.8 µM; with COLO 205 colon, 39.1 µM; in the test on 786-0 renal, 32.7 µM; in the test on MOLT-4 leukemia, 87.2 µM. For the same molecule, the TGI was 35.3 µM with OVCAR-8 ovarian, > 100 µM in the test with A549 NSCLC, > 100 µM with KM12 colon and 29.4 µM in the test on BT-549 breast.
`COc1ccc2cc(NC(=O)Nn3cnnc3)ccc2c1`: the TGI in the test with K-562 leukemia, in the test on HT29 colon, with NCI-H460 lung, in the test on UO-31 renal, in the test on SK-OV-3 ovarian and with HCT-15 colon was > 100 µM in each case. For the same molecule, the TGI in the test with SF-539 CNS, in the test on DU-145 prostate, with T-47D breast, in the test on MDA-MB-231 breast, in the test with COLO 205 colon and in the test with 786-0 renal was > 100 µM in each case. In addition, the TGI in the test on MOLT-4 leukemia, in the test on OVCAR-8 ovarian, with SNB-75 CNS, with A549 NSCLC, in the test with KM12 colon and in the test on BT-549 breast was > 100 µM throughout.
`COc1cc(Br)cc2c1O[C@H]1C(=O)CC3CC21CCN3C` (some centres undefined): the TGI with K-562 leukemia is 46.3 µM; in the test on NCI/ADR-RES ovarian, > 100 µM; in the test with HT29 colon, > 100 µM; in the test with UO-31 renal, > 100 µM; in the test with SK-OV-3 ovarian it was > 100 µM; with HCT-15 colon, > 100 µM. Also, the TGI is > 100 µM in the test with SF-539 CNS; 74 µM in the test with T-47D breast; > 100 µM in the test on COLO 205 colon; > 100 µM in the test on 786-0 renal; 61.6 µM in the test with MOLT-4 leukemia; 71.7 µM with OVCAR-8 ovarian. Further, the TGI in the test on A549 NSCLC, in the test on KM12 colon and with BT-549 breast was > 100 µM each time.
`CCN(CC)CCOc1ccc(N2Cc3cc(OC)c(OC)cc3C2=O)cc1`: the TGI in the test on K-562 leukemia, with NCI/ADR-RES ovarian, in the test with HT29 colon, in the test with NCI-H460 lung, in the test on SK-OV-3 ovarian and with HCT-15 colon was > 100 µM in each case. Also, the TGI with SF-539 CNS, in the test on DU-145 prostate, with T-47D breast, in the test on MDA-MB-231 breast, in the test with COLO 205 colon and in the test with 786-0 renal was > 100 µM throughout. For the same molecule, the TGI with MOLT-4 leukemia, in the test with OVCAR-8 ovarian, with A549 NSCLC, with KM12 colon and with BT-549 breast was > 100 µM each time.
As to `O=C(OC1C#CCSCC#C/C=C\1)c1cnc2ccccc2n1` (centres undefined), the TGI is 65.4 µM in the test with K-562 leukemia; > 100 µM with NCI/ADR-RES ovarian; > 100 µM in the test on HT29 colon; 33.7 µM in the test on NCI-H460 lung; > 100 µM with UO-31 renal; > 100 µM in the test on SK-OV-3 ovarian. Further, the TGI was > 100 µM with HCT-15 colon; > 100 µM in the test on SF-539 CNS; > 100 µM with DU-145 prostate; > 100 µM with MDA-MB-231 breast; 30.8 µM in the test with COLO 205 colon; 26.3 µM in the test with 786-0 renal. For the same molecule, the TGI in the test with OVCAR-8 ovarian, in the test with SNB-75 CNS and in the test with BT-549 breast was > 100 µM throughout.
For `COc1cc(C2SC(N)=Nc3c2c(C)nn3C(=O)Cc2ccccc2)cc(OC)c1OC` (centres undefined), the TGI in the test on K-562 leukemia, in the test on HT29 colon, in the test with NCI-H460 lung, in the test with UO-31 renal, in the test with SK-OV-3 ovarian and in the test with HCT-15 colon was > 100 µM each time. Also, the TGI in the test with SF-539 CNS, in the test on DU-145 prostate, in the test on T-47D breast, in the test with MDA-MB-231 breast, in the test on COLO 205 colon and in the test with 786-0 renal was > 100 µM throughout. Further, the TGI with MOLT-4 leukemia, with OVCAR-8 ovarian, with SNB-75 CNS, with A549 NSCLC, in the test on KM12 colon and with BT-549 breast was > 100 µM each time.
On to `CCN1CCC(O)(/C=C/c2cccc(C)c2)C(C(=O)/C=C/c2cccc(C)c2)C1` (centres undefined), for which the TGI with K-562 leukemia is > 29.8 µM; in the test with NCI/ADR-RES ovarian, 5.99 µM; with HT29 colon, 3.18 µM; in the test on NCI-H460 lung, 4.64 µM; in the test with UO-31 renal, 3.06 µM; with SK-OV-3 ovarian it was 11.4 µM. The TGI is 6.29 µM in the test with HCT-15 colon; 5.4 µM with SF-539 CNS; 13.8 µM in the test with DU-145 prostate; 8.38 µM in the test on T-47D breast; 11.5 µM in the test with MDA-MB-231 breast; 4.67 µM with COLO 205 colon. For the same molecule, the TGI was 5.83 µM in the test on 786-0 renal; > 21.5 µM in the test with MOLT-4 leukemia; 10.4 µM in the test on OVCAR-8 ovarian; 7.69 µM in the test on SNB-75 CNS; 5.97 µM in the test on A549 NSCLC; 3.27 µM with KM12 colon.
Turning to `CN(NC(=O)c1ccc(Cl)cc1)C1=NCCCCN1`, the TGI in the test on K-562 leukemia, with NCI/ADR-RES ovarian, with HT29 colon, in the test with NCI-H460 lung, in the test on UO-31 renal and with SK-OV-3 ovarian was > 100 µM throughout. The TGI in the test on HCT-15 colon, in the test with SF-539 CNS, in the test with T-47D breast, in the test with MDA-MB-231 breast, in the test with COLO 205 colon and in the test on 786-0 renal was > 100 µM in each case. Besides, the TGI in the test on MOLT-4 leukemia, in the test with OVCAR-8 ovarian, in the test on SNB-75 CNS, with A549 NSCLC, with KM12 colon and with BT-549 breast was > 100 µM each time.
For the molecule `O=C(O)[C@@]1(Cc2ccc(O)cc2)C[C@@H]2Cc3ccccc3N2N1`, the TGI in the test on NCI/ADR-RES ovarian, in the test on HT29 colon, with UO-31 renal, in the test on SK-OV-3 ovarian, in the test on HCT-15 colon and in the test with SF-539 CNS was > 100 µM throughout. For the same molecule, the TGI in the test on DU-145 prostate, in the test with T-47D breast, in the test on MDA-MB-231 breast, in the test with COLO 205 colon, in the test with 786-0 renal and in the test with MOLT-4 leukemia was > 100 µM in each case. The TGI in the test on OVCAR-8 ovarian, in the test on A549 NSCLC, in the test with KM12 colon and in the test on BT-549 breast was > 100 µM throughout.
